Experimental data: patent US10479752B2, “Deuterated tetramethyl dioic acids, compositions comprising them and uses thereof” (SYNDROMEX LTD., priority 2011, dated 2019)

Experiments:
[1] = Comparative oral bioavailability / pharmacokinetic study, single intravenous and oral administration; format: in vivo; details: rat; for C0 / t1/2 / AUCinf / Cmax / tmax: Mean CV (%); for F (oral bioavailability): 50 mg/kg po vs 5 mg/kg iv, Mean (CV %); for tmax of the individual treated rats: oral administration 50 mg/kg, post-dose
Procedure: The pharmacokinetic properties and the oral bioavailability were investigated for the following comparative compounds:
The plasma concentrations of the test items were measured by LC/MS/MS method following single intravenous and oral administration at the doses of 5 mg/kg body weight and 50 mg/kg body weight, respectively. Following intravenous administration small inter-individual variability was observed. Following i.v administration, the highest plasma concentrations were measured at the first sampling time-point (5 minutes) followed by a biphasic continuous decrease. […] The peak concentrations, tmax and the apparent terminal elimination half-lives (t1/2) were the followings:
The vehicle for oral administration was prepared in advance. Preparation: 1 g of carboxymethylcellulose sodium salt was dissolved in 100 ml of Humaqua. The vehicle was prepared at least 2 days prior to formulation of the test items. The vehicle was stored in a refrigerator when not in use.
The required amount of test item was weighed on an analytical balance, transferred into a suitable vial. The test item was dissolved in the required volume of N,N-dimethylacetamide (40% of the final volume). Dissolution of the test item was facilitated by gentle mixing by vortex. The solution was diluted with the suitable volume of PEG400 (40% of the final volume) then Salsol A (20% of the final volume). The final concentration of the test item in the solution was 5 mg/ml. The formulations were prepared freshly on the day of administration.
The required amount of test item was weighed on an analytical balance, transferred into a test tube and mixed with the suitable volume of 1% CMC to achieve the final concentration of 25 mg/ml. The suspension was sonicated twice in bath sonicator for 30 min at 40 C (each round), and left overnight at room temperature. On the following day, the suspension was sonicated again (bath sonicator, 30 min, 40° C.) and further homogenized in a glass/glass homogenizer trying to reaching an homogenous suspension. In spite of the above procedure the quality (homogeneity) of the suspension was not perfect. The suspension was stored at room temperature till administration.
Species/Strain rat/Wistar (Crl:(WI)BR rats)
Number of animals: 24 males (at least 32 for cannulation*)
After the acclimatization period, rats were equipped with a jugular vein cannula under isoflurane anesthesia. The following day the animals were used for the study. In the morning the rats were checked for health status and blood sampling before assigning them into the experimental group.
The terminal elimination phase was defined on the basis of the last 3-5 measured concentration except rat A4. […] The central volume of distribution (Vc: […]) was approximately equal to the total blood volume. The volume of distribution estimated for the steady state situation (Vss: 97.3-143 ml/kg) remained also small compared to the total extracellular fluid volume (˜300 ml/kg). The clearance was also very small for all experimental compound analogues. The smallest clearance was obtained for Compound 7: 23.2 ml/h/kg.

[2] = Chemical and isotopic stability as solutions in DMSO/phosphate buffered saline over 48 hours; details: for chemical purity (HPLC area percent) with respect to related substances: all samples through the study; for analyte recovered, yield: summary over the study; for disenrichment of the product (isotopic stability): throughout the time period of the study
Procedure: A 1 mg/mL stock solution (˜55 mL) of deuterated compound in DMSO was prepared. A measured volume of stock (7.5 mL) was dispensed in to each of seven vials. To each vial was added a measured volume of PBS (aq) (3.0 mL), and each vial was agitated to mix. The vials were then placed in a thermostatically-controlled oven set to 37° C. At each time-point (0 h, 2 h, 4 h, 24 h, 48 h) a vial was drawn from the oven. To the vial was added MTBE (9.0 mL), and the mixture was stirred vigorously for 5 min. The layers were separated, and the MTBE layer was agitated with DI water (3.75 mL) for 1 min. The layers were separated. The MTBE layer was dried with MgSO4 for >1 h, and then filtered through a PTFE syringe filter into a tared vial. The solution was concentrated in vacuo to a solid residue, and the mass of the residue was calculated and recorded. To the residue a measured volume of MeOH was added to make (theoretically) a 2.5 mg/mL solution. In this case, 3.00 mL MeOH was added to each vial which theoretically contained 7.5 mg of compound. The content of each solution was measured by quantitative HPLC analysis (by comparison to a standard of known concentration). The MeOH solutions were then recovered, concentrated in vacuo to a solid, and then analyzed by GCMS to determine isotopic enrichment as the methyl ester derivatives.

Male db/db Mouse Model = experiment: Comparative in vivo efficacy study, 3 h-fasting blood glucose; details: db/db mice
Procedure: Male db/db Mouse Model. Age of animal at start of treatment: 10-11 weeks. Animals per treatment group: 6-7 mice per each group.
Vehicle control: (1% CMC in water).
Positive control: Rosiglitazone, 25 mg/kg.
Group I: Compound 7″, 12.5 mg/kg.
Group II: Compound 7″, 25 mg/kg. […]
Group IV: Compound 7, 25 mg/kg.
Duration of treatment: 15 days.
1. Dosing: Animals are 10-11 weeks of age and were allowed to acclimate 1-2 weeks. After acclimation, animals were entered to the study and were […] daily for a duration of 15 days.
2. Formulation: compounds were formulated with […]. Formulation also involve sonication and vortexing before use.
4. Fasting Glucose Levels: 3 h-Fasting glucose levels were measured on tail blood of all the animals on days 0, 6, 12, and 16 (not shown) of the study using glucose sticks (Proforma).

[3] = DMSO/PBS solution, 37° C., 24 h
[4] = DMSO/PBS solution, 37° C., 48 h
[5] = Original Sample (before the stability study)

Compound	C0 ([1]; 5 mg/kg iv dose)	t1/2 ([1]; 5 mg/kg iv dose)	AUCinf ([1]; 5 mg/kg iv)	Cmax ([1]; 50 mg/kg po dose)	t1/2 ([1]; 50 mg/kg po dose)	tmax ([1]; 50 mg/kg po dose)	F (oral bioavailability) [1]	AUCinf ([1]; 50 mg/kg po)	tmax of the individual treated rats [1] [h]	GC/MS IE (isotopic enrichment) ([2]; DMSO/PBS solution, 37° C., 0 h) [%]	HPLC Area Percentage ([2]; DMSO/PBS solution, 37° C., 0 h) [%]	HPLC Assay ([2]; DMSO/PBS solution, 37° C., 0 h) [%]	GC/MS IE (isotopic enrichment) ([2]; DMSO/PBS solution, 37° C., 2 h) [%]	HPLC Area Percentage ([2]; DMSO/PBS solution, 37° C., 2 h) [%]	HPLC Assay ([2]; DMSO/PBS solution, 37° C., 2 h) [%]	GC/MS IE (isotopic enrichment) ([2]; DMSO/PBS solution, 37° C., 4 h) [%]	HPLC Area Percentage ([2]; DMSO/PBS solution, 37° C., 4 h) [%]	HPLC Assay ([2]; DMSO/PBS solution, 37° C., 4 h) [%]	GC/MS IE (isotopic enrichment) [2, 3] [%]	HPLC Area Percentage [2, 3] [%]	also measured
[2H]C([2H])([2H])C(CCCCCCCCCCCCC(C(=O)O)(C([2H])([2H])[2H])C([2H])([2H])[2H])(C(=O)O)C([2H])([2H])[2H] [Compound 7, 2,2,15,15-Tetramethyl(D12)-hexadecanedioic acid]	64.3 (16.9%) μg/ml	2.14 (2.6%) h	218 (14.9%) h * μg/ml	151 (29.0%) μg/ml	6.64 (50.3%) h	4 (0%) h	102 (36.8) %	2221 (36.8%) h * μg/ml	4	99.9	96.8	89.4	99.9	95.4	101.6	99.9	95.8	91.6	99.9	96.9	mean residence time ([1]; intravenous administration): 4.2 h; clearance ([1]; iv administration): 0.387 mL/min/kg; mean residence time ([1]; oral administration): 11.8 h; HPLC Assay [2, 3]: 92.3%; GC/MS IE (isotopic enrichment) [2, 4]: 99.9%; HPLC Area Percentage [2, 4]: 96.7%; HPLC Assay [2, 4]: 82.2%; chemical purity (HPLC area percent) with respect to related substances ([2]; DMSO/PBS solution, 37° C.): around 96%; analyte recovered, yield ([2]; DMSO/PBS solution, 37° C.): approximately 90%; disenrichment of the product (isotopic stability) ([2]; DMSO/PBS solution, 37° C.): No disenrichment; GC/MS IE (isotopic enrichment) [2, 5]: 99.9%; HPLC Area Percentage [2, 5]: 99.5%; efficacy on 3 h-fasting blood glucose, in words (Male db/db Mouse Model; Group III (Compound 7, 25 mg dose) compared with Groups I and II (Compound 7″)): exceeds that of both treatment Groups I and II; glucose level reached (normalized plasma levels) (Male db/db Mouse Model; Group IV (Compound 7, 25 mg)): less than 110 mg %; efficacy on 3 h-fasting blood glucose, in words (Male db/db Mouse Model; Group IV (Compound 7, 25 mg), days 0, 6, 12, compared with Rosiglitazone 25 mg/kg): greater efficacy as compared with Rosiglitazone
CC(C)(CCCCCCCCCCCCC(C)(C)C(=O)O)C(=O)O [Compound 7″, reference compound]	74.6 (6.9%) μg/ml	2.18 (19.1%) h	128 (13.4%) h * μg/ml	143 (41.3%) μg/ml	2.22 (9.9%) h	8 (50.0%) h	124 (28.3) %	1586 (28.3%) h * μg/ml	–	–	–	–	–	–	–	–	–	–	–	–	–
[2H]C([2H])([2H])C(CCCCCCCCCCC(C([2H])([2H])[2H])(C([2H])([2H])[2H])C([2H])([2H])C(=O)O)(C([2H])([2H])[2H])C([2H])([2H])C(=O)O [Compound 1, 3,3,14,14-[D16]Tetramethyl-1,16-hexadecanedoic acid]	67.0 (8.8%) μg/ml	2.81 (28.5%) h	137 (19.3%) h * μg/ml	114 (19.6%) μg/ml	4.29 (15.7%) h	4 (0%) h	91.0 (11.1) %	1246 (11.1%) h * μg/ml	4	98.3	98.1	66.5	98.2	97.2	64.5	98.2	97.8	70.1	98.3	97.6	HPLC Assay [2, 3]: 89.3%; GC/MS IE (isotopic enrichment) [2, 4]: 98.3%; HPLC Area Percentage [2, 4]: 97.5%; HPLC Assay [2, 4]: 86.3%; chemical purity (HPLC area percent) with respect to related substances ([2]; DMSO/PBS solution, 37° C.): around 97%; analyte recovered, yield ([2]; DMSO/PBS solution, 37° C.): over 90%; disenrichment of the product (isotopic stability) ([2]; DMSO/PBS solution, 37° C.): No disenrichment; GC/MS IE (isotopic enrichment) [2, 5]: 98.3%; HPLC Area Percentage [2, 5]: 100.0%
